In PubChem BioAssay (NCI):
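Dose response: 5 concentrations. Exposure: 48 h. Format: 96-well plates. Endpoint: linear interpolation; highest concentration if not reached. The concentration for full growth arrest is given as TGI.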 Where a SMILES comes first, the peptide text is derived from it. [ ]: non-standard residue; d: D form.

Experiments:
Experiment in all cases: DTP human tumour cell line panel, 48 h
UACC-257 melanoma = system: UACC-257 melanoma
NCI-H23 lung = system: NCI-H23 lung
HT29 colon = system: HT29 colon
NCI-H460 lung = system: NCI-H460 lung
IGROV1 ovarian = system: IGROV1 ovarian
SK-MEL-2 melanoma = system: SK-MEL-2 melanoma
MOLT-4 leukemia = system: MOLT-4 leukemia
HOP-92 NSCLC = system: HOP-92 NSCLC
NCI-H226 lung = system: NCI-H226 lung

Row | Compound | TGI (UACC-257 melanoma) | TGI (NCI-H23 lung) | TGI (HT29 colon) | TGI (NCI-H460 lung) | TGI (IGROV1 ovarian) | TGI (SK-MEL-2 melanoma) | TGI (MOLT-4 leukemia) | TGI (HOP-92 NSCLC) | TGI (NCI-H226 lung)
1 | CCC[N+](C)(C)CCCNC(=O)c1c(O)c2ccccc2[nH]c1=O | > 100 µM | > 100 µM | > 100 µM | > 100 µM | > 100 µM | > 100 µM | > 100 µM | > 100 µM | > 100 µM
2 | COC(=O)C1=C(C)NC(C)=C(C(=O)OC)C1c1cccc(/[N+]([O-])=C/c2ccccc2)c1 | 40.5 µM | > 100 µM | 87.4 µM | > 100 µM | > 100 µM | > 100 µM | 68 µM | 38 µM | > 100 µM
3 | CC(C)(C)OC(=O)N1C(=O)C2CCCC21 (configuration not stated) | > 100 µM | > 100 µM | > 100 µM | > 100 µM | > 100 µM | > 100 µM | > 100 µM | > 100 µM | > 100 µM
4 | CCCCCCc1ccc(CCCCCCCC(=O)O)o1 | > 100 µM | > 100 µM | > 100 µM | > 100 µM | > 100 µM | > 100 µM | 36.1 µM | > 100 µM | > 100 µM
5 | C=C1c2c(n(S(=O)(=O)c3ccccc3)c3ccccc23)[C@@]2(C(=O)OC)CC3C=CC2N1C3 | > 100 µM | > 100 µM | > 100 µM | > 100 µM | > 100 µM | > 100 µM | > 100 µM | > 100 µM | > 100 µM
6 | COc1ccc(/C(=N/O)c2ccccc2C2=Nc3ccccc3C(NCc3ccccc3)O2)cc1C (configuration not stated) | 41.9 µM | > 100 µM | > 100 µM | > 100 µM | > 100 µM | > 100 µM | > 100 µM | 71.9 µM | > 100 µM
7 | COC1(OC)CC(CO)(COc2cc(Cl)nc(N)n2)C1 | > 100 µM | > 100 µM | > 100 µM | > 100 µM | > 100 µM | > 100 µM | > 100 µM | > 100 µM | > 100 µM
8 | O=C(CCCCCNC(=O)c1ccc(Cl)cc1)NO | 14.5 µM | 51.5 µM | > 100 µM | 39.6 µM | 25 µM | 7.22 µM | > 100 µM | 11.1 µM | 71.2 µM
9 | CC(C)C[C@H](NC(=O)[C@H](CC(C)C)NC(=O)[C@@H](Cc1c[nH]c2ccccc12)NC(=O)[C@H](Cc1ccccc1)NC(=O)[C@@H](Cc1c[nH]c2ccccc12)NC(=O)[C@H](CCC(N)=O)NC(=O)[C@@H](CCC(N)=O)NC(=O)[C@@H]1CCCN1C(=O)[C@@H](CCCCN)NC(=O)[C@H]1CCCN1C(=O)[C@H](N)CCCN=C(N)N)C(N)=O (H-[dR][dP][dK]P[dQ]Q[dW]F[dW]LL-NH2) | > 100 µM | > 100 µM | > 100 µM | > 100 µM | > 100 µM | > 100 µM | > 79.5 µM | > 100 µM | > 100 µM
10 | CSc1nnnc2ccccc12 | > 100 µM | > 100 µM | > 100 µM | > 100 µM | > 100 µM | > 100 µM | > 100 µM | > 100 µM | > 100 µM
11 | N#Cc1c(/C=C/c2ccccc2)c2c([nH]c1=S)CCCCC2 | > 100 µM | > 100 µM | > 100 µM | > 100 µM | > 100 µM | > 100 µM | > 100 µM | > 100 µM | > 100 µM
12 | C1=CC2C(C3CN(c4ccccc4)N=C13)C1C3C4C=CC21C=CC43 (configuration not stated) | > 100 µM | > 100 µM | > 100 µM | > 100 µM | > 100 µM | > 100 µM | > 100 µM | > 100 µM | > 100 µM
13 | COC(=O)/C1=C/C=C\C[C@@]2(C)CC(c3ccoc3)OC(=O)[C@@H]2CC[C@H]1C (some centres not stated) | > 25 µM | > 25 µM | > 25 µM | > 25 µM | > 25 µM | > 25 µM | > 25 µM | > 25 µM | > 25 µM
14 | O=C1CCC2(O)c3ccccc3C2Cc2ccccc21 (configuration not stated) | > 100 µM | > 100 µM | > 100 µM | > 100 µM | > 100 µM | > 100 µM | > 100 µM | > 100 µM | > 100 µM
15 | O=C1C(c2ccccc2)=C(c2ccccc2)C1(Cl)Cl | 9.36 µM | 7.72 µM | 13.6 µM | 20.8 µM | 15.3 µM | 8.7 µM | 6.97 µM | 7.14 µM | 10.1 µM
16 | COc1cc(C2c3cccc4cccc(c34)C3CCC(=O)N32)cc(OC)c1O (configuration not stated) | > 50 µM | > 50 µM | > 50 µM | > 50 µM | > 50 µM | > 50 µM | > 50 µM | > 50 µM | > 50 µM
17 | CC1(C)C2CC3C(C)(C2)C31c1cc(Cl)ccc1N (configuration not stated) | 26.4 µM | 26 µM | 27.6 µM | 28.9 µM | 27.6 µM | 29.4 µM | 22.7 µM | 28.6 µM | 34.6 µM
18 | CCCCCc1cc2cc3c(c(O)c2c(=O)[nH]1)C1(CCC3)C(=O)c2c(O)ccc(O)c2C1=O | > 100 µM | > 100 µM | > 100 µM | > 100 µM | > 100 µM | > 100 µM | > 100 µM | > 100 µM | > 100 µM
